Laboratory results: patent US20060234276A1, “Methods of treatment of type 2 diabetes” (priority 1998, published 2006)
Peptide text beside a SMILES is read from it.

Key:
[1] = tested on: isolated β-cells; experiment: Membrane capacitance recordings (exocytosis) in isolated β-cells; format: cell-based, mouse
Procedure: Isolation of pancreatic β-cells. Single β-cells were obtained from isolated islets dispersed by gentle trituration (120 strokes through a 200 μl pipette tip) in Ca^2+ and Mg^2+-free PBS containing […]. Cells were plated on glass coverslips and maintained in culture in RPMI containing 11.6 mM glucose for 48-96 hr.
Capacitance recordings. Capacitance measurements were made with the phase-tracking technique in which a 60 mV peak-to-peak sine wave was superimposed on a holding potential of −80 mV as previously described. Conductance and capacitance values were continuously generated and recorded. The whole-cell capacitance was canceled with the slow capacitance compensation; unbalancing the slow capacitance compensation by 100 fF provided the capacitance calibration signal used to calculate changes in membrane capacitance. The sinusoidal voltage template was interrupted to deliver depolarizations to a cell. Beta cells were stimulated with a train of ten step depolarizations to +20 mV (HP=−80 mV). Each step depolarization lasted 150 ms and was separated by 400 ms interpulse duration. Capacitance measurements were carried out in the perforated whole-cell configuration. The data were collected at a 500 μsec sampling rate and filtered at 5 kHz. Recordings with series resistance >20 MΩ were discarded. Series resistance compensation was applied in all recordings.
The recording solution for the capacitance measurements contained (in mM): 130 NaCl, 2 glucose, 10 Na-HEPES, 1 MgCl2, 2 KCl, and 5 CaCl2, pH 7.3 with NaOH. The pipette solution contained (in mM): 135 Cs-glutamate, 10 Na-HEPES, 9.5 NaCl, 0.5 TEACl, and 0.5 CaCl2, pH7.3 with CsOH. The pipettes were backfilled with an identical solution to which amphotericin B (final concentration of 0.5 mg/ml) was added and then sonicated. The amphotericin B stock solution (125 mg/ml) was kept frozen at −20° C. and used for one week. ALLM pre-treatment was as described above (see patch-clamp electrophysiology section). All electrophysiological recordings were carried out at room temperature (22-24° C.)

[2] = tested on: mouse islets; experiment: Measurement of islet [Ca2+]i (Fura-2); format: cell-based
Procedure: Measurement of islet [Ca^2+]i, and NAD(P)H. Islet [Ca^2+]i and NAD(P)H were measured as previously described (Pontoglio et al., 1998; Dukes et al., 1998).
Insulin secretory responses to glucose and most other secretagogues is mediated by a rise in intracellular free calcium ([Ca^2+]i). We therefore measured [Ca^2+]i responses to glucose, KIC and KCl using Fura-2 as the Ca^2+ indicator. In comparison to the responses from the control islets, the most prominent abnormality in [Ca^2+]i responses to glucose and KIC was a delay of the [Ca^2+]i responses (FIG. 21). The mean time interval between administration of 14 mM glucose and the point of half maximal response (T1/2.) was 120±14 seconds in control islets. […] There was no delay in the appearance of [Ca^2+]i response to KCl, nor was the magnitude of the response reduced.

**Q.** `CSCC[C@@H](C=O)NC(=O)[C@H](CC(C)C)NC(=O)[C@H](CC(C)C)NC(C)=O` [ALLM, N-Ac-Leu-Leu-methioninal] (Ac-Leu-Leu-Met-aldehyde) was tested. Which “rates of exocytosis in β-cells” value ([1]; 4 days culture with inhibitor) did it give?
**A.** significantly lower rates of exocytosis

**Q.** What about the “change in membrane capacitance elicited by train of depolarizations” value ([1]; ALLM 100 μM pre-treatment, vs control cells) of the same compound?
**A.** much larger average changes in membrane capacitance

**Q.** And the “[Ca2+]i response to high glucose” value ([2]; 4 hr preincubation, 14 mM glucose)?
**A.** not associated with increases in [Ca^2+]i

**Q.** What about the “[Ca2+]i response to glucose ramp (2 to 26 mM over 48 mins)” value ([2]; 48 h treated islets) of the same compound?
**A.** diminished

**Q.** And the “[Ca2+]i responses to 30 mM KCl vs control” value ([2]; 48 h treated islets)?
**A.** not different

**Q.** What about the “integrated [Ca2+]i responses (area under the curves) to glucose and KIC vs control” value ([2]; 48 h treated islets) of the same compound?
**A.** significantly smaller

**Q.** And the “T1/2 of [Ca2+]i response to 14 mM glucose (time to half maximal response)” value ([2]; 48 h treated islets, control 120±14 seconds)?
**A.** 5.32 ± 0.7 min

**Q.** And the “T1/2 of [Ca2+]i response to KIC” value ([2]; 48 h treated islets, control 125±9)?
**A.** 4.18 ± 0.7 min
